From patent US9187472B2 (AbbVie Inc., priority 2012, dated 2015)

Legend:
NAMPT = NAMPT (Homo sapiens, UniProt P43490); assay: TR-FRET Binding Assay of NAMPT with PRPP; settings: with 200 μM PRPP and 2.5 mM ATP; 2 nM NAMPT, 2 nM probe, 16 hours equilibration
Summary of the method: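 Run in the presence of substrates (200 μM PRPP, 2.5 mM ATP) with final 2 nM NAMPT, 2 nM probe, 1 nM Tb-anti-His antibody and 2% DMSO. Mixtures equilibrated 16 h before TR-FRET measurement so test compounds could be enzymatically modified.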

PC3 cells = assay: NAMPT Cell Proliferation Assay; type: cell-based; settings: Homo sapiens, PC-3, 120 h, 5 days incubation, cell viability by Cell Titer Glo
Summary of the method: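 Proliferation of PC3 cells treated 5 days with a 10-fold compound series (top 10 μM) was quantified by Cell Titer Glo luminescence; IC50s were fitted from percent inhibition.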

[1] = biological target: NAMPT (human, recombinant, C-terminally His-tagged) (Homo sapiens, UniProt P43490); assay: Time-Resolved Fluorescence Resonance Energy Transfer (TR-FRET) Binding Assay of NAMPT; settings: without substrates; 6.8 nM NAMPT, 200 nM probe, 3 hours equilibration
Summary of the method: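 Probe displacement by compound was measured with 6.8 nM NAMPT, 200 nM Oregon Green 488-conjugated nicotinamide-competitive inhibitor probe and 1 nM Tb-anti-His antibody in 50 mM HEPES pH 7.5, 100 mM NaCl, 10 mM MgCl2, 1 mM DTT, 1% glycerol, 2% DMSO (final). After 3 h at room temperature, TR-FRET was read; IC50 from four-parameter logistic fit.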

NAMPT, sequence (P43490 whole entry): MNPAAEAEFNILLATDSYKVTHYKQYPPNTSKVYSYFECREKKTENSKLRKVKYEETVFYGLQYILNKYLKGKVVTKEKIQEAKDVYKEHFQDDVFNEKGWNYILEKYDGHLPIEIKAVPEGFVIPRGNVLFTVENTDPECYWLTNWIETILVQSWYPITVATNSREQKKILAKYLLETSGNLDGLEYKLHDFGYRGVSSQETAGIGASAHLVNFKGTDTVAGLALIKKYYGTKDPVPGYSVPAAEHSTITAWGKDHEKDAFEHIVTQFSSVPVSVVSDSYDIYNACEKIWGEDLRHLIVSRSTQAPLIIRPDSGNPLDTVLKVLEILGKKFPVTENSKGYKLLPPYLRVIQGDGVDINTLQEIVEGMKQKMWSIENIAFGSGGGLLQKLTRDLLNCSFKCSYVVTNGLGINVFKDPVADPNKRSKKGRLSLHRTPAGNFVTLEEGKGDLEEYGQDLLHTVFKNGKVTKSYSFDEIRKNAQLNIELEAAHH
NAMPT (human, recombinant, C-terminally His-tagged), sequence (P43490 whole entry): as above

Row | SMILES | IC50 (NAMPT) | IC50 (PC3 cells) | IC50 [1]
1 | O=C(CC1CCCC1)Nc1ccc(NC(=O)NCc2ccn3ncnc3c2)cc1 [Example 564, 2-cyclopentyl-N-(4-{[([1,2,4]triazolo[1,5-a]pyridin-7-ylmethyl)carbamoyl]amino}phenyl)acetamide] | 3.43 nM | 211 nM | 23.8 nM
2 | O=C(NCc1ccc2nccn2c1)c1cnc(N(CC2CCOCC2)C(=O)C2CCOC2)s1 (stereo not drawn) [Example 143, N-(imidazo[1,2-a]pyridin-6-ylmethyl)-2-[(tetrahydrofuran-3-ylcarbonyl)(tetrahydro-2H-pyran-4-ylmethyl)amino]-1,3-thiazole-5-carboxamide] | 2.03 nM | 80.8 nM | 8710 nM
3 | O=C(NCc1ccn2ccnc2c1)c1ccc(C2CCN(C(=O)c3ccccc3F)C2)cc1 (stereo not drawn) [Example 589, 4-[1-(2-fluorobenzoyl)pyrrolidin-3-yl]-N-(imidazo[1,2-a]pyridin-7-ylmethyl)benzamide] | 0.887 nM | 1.31 nM | 16.1 nM
4 | O=C(NCc1ccc2ncnn2c1)c1ccc(-c2cnn(CC3(F)CCOCC3)c2)o1 [Example 810, 5-{1-[(4-fluorotetrahydro-2H-pyran-4-yl)methyl]-1H-pyrazol-4-yl}-N-([1,2,4]triazolo[1,5-a]pyridin-6-ylmethyl)furan-2-carboxamide] | 12.6 nM | 327 nM | 481 nM
5 | O=C(NCc1ccn2ccnc2c1)c1ccc(C2CN(C(=O)c3cnccn3)C2)cc1 [Example 635, N-(imidazo[1,2-a]pyridin-7-ylmethyl)-4-[1-(pyrazin-2-ylcarbonyl)azetidin-3-yl]benzamide] | 0.975 nM | 50 nM | 462 nM
6 | CC(C)C[C@H](NC(=O)C1CC1)c1ccc(C(=O)NCc2ccn3ccnc3c2)s1 [Example 687, 5-{(1S)-1-[(cyclopropylcarbonyl)amino]-3-methylbutyl}-N-(imidazo[1,2-a]pyridin-7-ylmethyl)thiophene-2-carboxamide] | 1.16 nM | 2.19 nM | 97.3 nM
7 | CC(C)C[C@@H](NC(=O)CC1CCOC1)c1ccc(C(=O)NCc2ccn3ccnc3c2)s1 (stereo partly drawn) [Example 686, N-(imidazo[1,2-a]pyridin-7-ylmethyl)-5-{(1R)-3-methyl-1-[(tetrahydrofuran-3-ylacetyl)amino]butyl}thiophene-2-carboxamide] | 1.3 nM | 77.2 nM | 959 nM
8 | O=C(NCc1ccc2nccn2c1)c1cnc(N(CC2CCCO2)C(=O)CCc2cc(Cl)no2)s1 (stereo not drawn) [Example 126, 2-{[3-(3-chloro-1,2-oxazol-5-yl)propanoyl](tetrahydrofuran-2-ylmethyl)amino}-N-(imidazo[1,2-a]pyridin-6-ylmethyl)-1,3-thiazole-5-carboxamide] | 0.963 nM | 3.96 nM | 102 nM
9 | CC(C)(C)OC(=O)N1CCC(c2ccc(NC(=O)NCc3ccn4ncnc4c3)cc2)CC1 [Example 565, tert-butyl 4-(4-{[([1,2,4]triazolo[1,5-a]pyridin-7-ylmethyl)carbamoyl]amino}phenyl)piperidine-1-carboxylate] | 5.38 nM | 891 nM | 215 nM
10 | O=C(NCc1ccn2ccnc2c1)c1ccc(C2CCN(C(=O)C3CCOC3)CC2)cc1 (stereo not drawn) [Example 231, N-(imidazo[1,2-a]pyridin-7-ylmethyl)-4-[1-(tetrahydrofuran-3-ylcarbonyl)piperidin-4-yl]benzamide] | 0.546 nM | 35.1 nM | 817 nM
11 | O=C(NCc1ccn2ccnc2c1)c1ccc(C2CN(C(=O)c3ccsc3)C2)cc1 [Example 668, N-(imidazo[1,2-a]pyridin-7-ylmethyl)-4-[1-(thiophen-3-ylcarbonyl)azetidin-3-yl]benzamide] | 1.1 nM | 80.3 nM | 263 nM
12 | COc1ccc(C(=O)N2CCC(c3ccc(C(=O)NCc4ccn5ccnc5c4)cc3)C2)cc1 (stereo not drawn) [Example 605, N-(imidazo[1,2-a]pyridin-7-ylmethyl)-4-[1-(4-methoxybenzoyl)pyrrolidin-3-yl]benzamide] | 0.886 nM | 66.1 nM | 559 nM
13 | O=C(NCc1ccn2ccnc2c1)c1ccc(C2CCN(C(=O)c3cc(F)cc(F)c3)C2)s1 (stereo not drawn) [Example 768, 5-[1-(3,5-difluorobenzoyl)pyrrolidin-3-yl]-N-(imidazo[1,2-a]pyridin-7-ylmethyl)thiophene-2-carboxamide] | 0.672 nM | 0.905 nM | 28.1 nM

Continued, values first:

Row | IC50 (NAMPT) | IC50 (PC3 cells) | IC50 [1] | SMILES
14 | 0.283 nM | 16.8 nM | 636 nM | O=C(NCCCCC1CCN(C(=O)C2COCCO2)CC1)Nc1ccc2nccn2c1 (stereo not drawn) [Example 63, 1-{4-[1-(1,4-dioxan-2-ylcarbonyl)piperidin-4-yl]butyl}-3-imidazo[1,2-a]pyridin-6-ylurea]
15 | 0.426 nM | 59.5 nM | 605 nM | O=C(NCCCCC1CCN(C(=O)CC2CCOC2)CC1)Nc1ccc2nccn2c1 (stereo not drawn) [Example 73, 1-imidazo[1,2-a]pyridin-6-yl-3-{4-[1-(tetrahydrofuran-3-ylacetyl)piperidin-4-yl]butyl}urea]
16 | 0.209 nM | 75.5 nM | 263 nM | O=C(Nc1ccc(C2CCN(C(=O)CC3CCCO3)CC2)cc1)Nc1ccc2nccn2c1 (stereo not drawn) [Example 111, 1-imidazo[1,2-a]pyridin-6-yl-3-{4-[1-(tetrahydrofuran-2-ylacetyl)piperidin-4-yl]phenyl}urea]
17 | 0.197 nM | 365 nM | 2430 nM | O=C(NCc1ccn2ccnc2c1)c1ccc(OC2CCN(C(=O)[C@@H]3CCCO3)CC2)cc1 [Example 419, N-(imidazo[1,2-a]pyridin-7-ylmethyl)-4-({1-[(2S)-tetrahydrofuran-2-ylcarbonyl]piperidin-4-yl}oxy)benzamide]
18 | 0.416 nM | 762 nM | 1590 nM | CC(C)(C)OC(=O)N1CC[C@@H](Oc2ccc(C(=O)NCc3ccn4ccnc4c3)cc2)C1 [Example 436, tert-butyl (3R)-3-{4-[(imidazo[1,2-a]pyridin-7-ylmethyl)carbamoyl]phenoxy}pyrrolidine-1-carboxylate]
19 | 0.545 nM | 2.61 nM | 16.6 nM | O=C(NCc1ccn2ccnc2c1)c1ccc(C2CN(C(=O)c3ccccc3F)C2)cc1 [Example 638, 4-[1-(2-fluorobenzoyl)azetidin-3-yl]-N-(imidazo[1,2-a]pyridin-7-ylmethyl)benzamide]
20 | 0.275 nM | > 10000 nM | 1670 nM | O=C(NCc1ccn2ccnc2c1)c1ccc(C2CCN(C(=O)C3COCCO3)C2)cc1 (stereo not drawn) [Example 377, 4-[1-(1,4-dioxan-2-ylcarbonyl)pyrrolidin-3-yl]-N-(imidazo[1,2-a]pyridin-7-ylmethyl)benzamide]
21 | 0.222 nM | 14 nM | 356 nM | O=C(NCCCCC1CCN(C(=O)C2CCCO2)CC1)Nc1ccc2nccn2c1 (stereo not drawn) [Example 74, 1-imidazo[1,2-a]pyridin-6-yl-3-{4-[1-(tetrahydrofuran-2-ylcarbonyl)piperidin-4-yl]butyl}urea]
22 | 0.194 nM | 9.42 nM | 70.8 nM | O=C(NCc1ccn2ccnc2c1)c1ccc(-c2cnn(CC3CCCO3)c2)o1 (stereo not drawn) [Example 476, N-(imidazo[1,2-a]pyridin-7-ylmethyl)-5-[1-(tetrahydrofuran-2-ylmethyl)-1H-pyrazol-4-yl]furan-2-carboxamide]
23 | 0.169 nM | 2.71 nM | 51.7 nM | CS(=O)(=O)N1CCC(c2ccc(C(=O)NCc3ccn4ccnc4c3)s2)CC1 [Example 271, N-(imidazo[1,2-a]pyridin-7-ylmethyl)-5-[1-(methylsulfonyl)piperidin-4-yl]thiophene-2-carboxamide]
24 | 0.264 nM | 72.2 nM | 330 nM | Cn1cc(C(=O)N2CCC(c3ccc(C(=O)NCc4ccn5ccnc5c4)cc3)CC2)cn1 [Example 517, N-(imidazo[1,2-a]pyridin-7-ylmethyl)-4-{1-[(1-methyl-1H-pyrazol-4-yl)carbonyl]piperidin-4-yl}benzamide]
25 | 0.235 nM | 3.21 nM | 72.9 nM | O=C(NCc1ccn2ccnc2c1)c1ccc(-c2cnn(CC3CCCCO3)c2)o1 (stereo not drawn) [Example 477, N-(imidazo[1,2-a]pyridin-7-ylmethyl)-5-[1-(tetrahydro-2H-pyran-2-ylmethyl)-1H-pyrazol-4-yl]furan-2-carboxamide]
26 | 0.344 nM | 15.2 nM | 101 nM | COCC(=O)N1CCC(c2ccc(C(=O)NCc3ccn4ccnc4c3)s2)CC1 [Example 257, N-(imidazo[1,2-a]pyridin-7-ylmethyl)-5-[1-(methoxyacetyl)piperidin-4-yl]thiophene-2-carboxamide]
27 | 0.169 nM | 7.2 nM | 294 nM | CC(C)(O)C(=O)N1CCC(c2ccc(C(=O)NCc3ccn4ccnc4c3)cc2)CC1 [Example 230, 4-[1-(2-hydroxy-2-methylpropanoyl)piperidin-4-yl]-N-(imidazo[1,2-a]pyridin-7-ylmethyl)benzamide]
28 | 0.437 nM | 647 nM | 871 nM | CC(C)CC(=O)N1CCC(c2ncc(C(=O)NCc3ccn4ccnc4c3)s2)CC1 [Example 544, N-(imidazo[1,2-a]pyridin-7-ylmethyl)-2-[1-(3-methylbutanoyl)piperidin-4-yl]-1,3-thiazole-5-carboxamide]
